Reference: ChEMBL document CHEMBL1137459, “Synthesis of 3-O-methylviridicatin analogues with improved anti-TNF-alpha properties” (2007)

Legend:
Type in all cases: functional
[1] = test system: PBMC; assay: Inhibition of LPS-stimulated TNFalpha secretion in human PBMC cells at 50 uM after 24 hrs by ELISA
[2] = test system: PBMC; assay: Inhibition of LPS-stimulated TNFalpha secretion in human PBMC cells at 10 uM after 24 hrs by ELISA
[3] = test system: THP-1; assay: Inhibition of LPS-stimulated TNFalpha secretion in human THP1 cells at 10 uM after 24 hrs by ELISA; conditions: THP-1, 24 h
[4] = test system: THP-1; assay: Inhibition of LPS-stimulated TNFalpha secretion in human THP1 cells at 50 uM after 24 hrs by ELISA; conditions: THP-1, 24 h

Row | SMILES | inhibition at 50 µM [1] [%] | inhibition at 10 µM [2] [%] | inhibition at 10 µM [3] [%] | inhibition at 50 µM [4] [%]
1 | CSc1c(-c2ccccc2)c2cc([N+](=O)[O-])ccc2[nH]c1=O | 94 | 86 |  | 
2 | Nc1c(-c2ccccc2)c2ccccc2[nH]c1=O | 79 | 29 |  | 
3 | CNc1c(-c2ccccc2)c2ccccc2[nH]c1=O | 67 | 36 | 50 | 97
4 | CCc1c(-c2ccccc2)c2ccccc2[nH]c1=O | 50 | 32 | 3 | 80
5 | CN(CCO)c1c(-c2ccccc2)c2ccccc2[nH]c1=O |  |  | 0 | 21
6 | CN(C)C(=O)N1CCN(c2c(-c3ccccc3)c3ccccc3[nH]c2=O)CC1 |  |  | 21 | 43
7 | COc1c(-c2ccccc2)c2ccccc2[nH]c1=O | 67 | 24 | 7 | 10
8 | CN(C)c1c(-c2ccccc2)c2ccccc2[nH]c1=O |  |  | 0 | 83
9 | CSc1c(-c2ccccc2)c2ccccc2[nH]c1=O | 95 | 78 | 49 | 93
10 | COCCN(CCOC)c1c(-c2ccccc2)c2ccccc2[nH]c1=O |  |  | 0 | 59
